Experimental data published in PMC5122387 (2016).

Experiments:
Assay in all cases: Dox fluorescence quenching
[1] = system: DNA tetrahedron (Td) (DNA, other) ACATTCCTAAGTCTGAAACATTACAGCTTGCTACACGAGAAGAGCCGCCATAGTA/TATCACCAGGCAGTTGACAGTGTAGCAAGCTGTAATAGATGCGAGGGTCCAATAC/TCAACTGCCTGGTGATAAAACGACACTACGTGGGAATCTACTATGGCGGCTCTTC/TTCAGACTTAGGAATGTGCTTCCCACGTAGTGTCGTTTGTATTGGACCCTCGCAT; conditions: not stated for assay; assembled in 50 mM MgCl2; 3 nM Dox; complete quenching at DNA:Dox molar ratio 0.05; Td assembled in 20 mM Tris-HCl, pH 8.0
[2] = system: Apt-Td (aptamer-tetrahedron complex) (DNA, other) AGGAAGAGAGAAGGAAGGGAATTTTTACATTCCTAAGTCTGAAACATTACAGCTTGCTACACGAGAAGAGCCGCCATAGTA/TATCACCAGGCAGTTGACAGTGTAGCAAGCTGTAATAGATGCGAGGGTCCAATAC/TCAACTGCCTGGTGATAAAACGACACTACGTGGGAATCTACTATGGCGGCTCTTC/TTCAGACTTAGGAATGTGCTTCCCACGTAGTGTCGTTTGTATTGGACCCTCGCAT/TTCCCTTCCTTCTCTCTTCCTCTCTCGCAGTTGATCCTTTGGATACCCTG; conditions: not stated for assay; assembled in 50 mM MgCl2; 3 nM Dox; complete quenching at DNA:Dox molar ratio 0.04; assembled in 20 mM Tris-HCl, pH 8.0
[3] = system: MUC1 aptamer (Apt) (DNA, aptamer) GCAGTTGATCCTTTGGATACCCTGG; conditions: not stated; 3 nM Dox; complete quenching at DNA:Dox molar ratio 1; buffer not stated

Measured: binding

COc1cccc2c1C(=O)c1c(O)c3c(c(O)c1C2=O)C[C@@](O)(C(=O)CO)C[C@@H]3O[C@H]1C[C@H](N)[C@H](O)[C@H](C)O1
yes: [1] | [2] | [3]
